How the values were obtained:
[1] = Lipophilicity, log D of the compound; type: physicochemical; settings: octanol/water
Zone of skin = experiment: Permeability in human skin after 48 hrs by Franz cell permeability assay

| SMILES | logD [1] | log Pe (Zone of skin) |
| --- | --- | --- |
| C[C@H](c1ccccc1)N(C)c1cc(C(F)(F)F)c(C#N)cn1 | 5.59 |  |
| N#Cc1ccc(-c2ccccc2O)cc1C(F)(F)F | 3.63 |  |
| Cc1nn(-c2ccccc2)c(C)c1/C=N/N1CCN(Cc2ccccc2)CC1 | 3.65 |  |
| Oc1cccc2ncccc12 | 1.46 |  |
| CC(=O)Nc1cnc(-c2ccccc2)o1 | 1.22 |  |
| Cc1cc(=O)n(-c2ccccc2)n1C [ANTIPYRINE] | 0.27 |  |
| NC(=O)N1c2ccccc2C=Cc2ccccc21 [CARBAMAZEPINE] | 2.67 | 0.18 |
| NS(=O)(=O)c1cc2c(cc1Cl)N=CNS2(=O)=O [CHLOROTHIAZIDE] | -0.78 |  |
| CN(C)CCCN1c2ccccc2Sc2ccc(Cl)cc21 [CHLORPROMAZINE] | 2.15 |  |
| Cl.Clc1cccc(Cl)c1NC1=NCCN1 [CLONIDINE HYDROCHLORIDE] | 0.37 | -0.68 |
| C[C@]12C[C@H](O)[C@H]3[C@@H](CCC4=CC(=O)CC[C@@]43C)[C@@H]1CC[C@@H]2C(=O)CO [CORTICOSTERONE] | 1.76 |  |
| C[C@@H]1C[C@H]2[C@@H]3CCC4=CC(=O)C=C[C@]4(C)[C@@]3(F)[C@@H](O)C[C@]2(C)[C@H]1C(=O)CO [DESOXIMETASONE] | 2 |  |
| C[C@@H]1C[C@H]2[C@@H]3CCC4=CC(=O)C=C[C@]4(C)[C@@]3(F)[C@@H](O)C[C@]2(C)[C@@]1(O)C(=O)CO [DEXAMETHASONE] | 1.87 |  |
| CCOC(=O)[C@H](CCc1ccccc1)N[C@@H](C)C(=O)N1CCC[C@H]1C(=O)O.O=C(O)/C=C\C(=O)O [ENALAPRIL MALEATE] | -0.55 | -1.72 |
| CCCn1c(=O)[nH]c(=O)c2[nH]cnc21 [ENPROFYLLINE] | 0.27 |  |
| NS(=O)(=O)c1cc2c(cc1Cl)NCNS2(=O)=O [HYDROCHLOROTHIAZIDE] |  | -2 |
| C[C@]12CCC(=O)C=C1CC[C@@H]1[C@@H]2[C@@H](O)C[C@@]2(C)[C@H]1CC[C@]2(O)C(=O)CO [HYDROCORTISONE] | 1.43 |  |
| COc1ccc2c(c1)c(CC(=O)O)c(C)n2C(=O)c1ccc(Cl)cc1 [INDOMETHACIN] | 0.59 |  |

| SMILES | logD [1] | log Pe (Zone of skin) |
| --- | --- | --- |
| CC(C)Cn1c(=O)n(C)c(=O)c2[nH]cnc21 [ISOBUTYLMETHYLXANTHINE] | 2 |  |
| CC(C(=O)O)c1cccc(C(=O)c2ccccc2)c1 (centres undefined) [KETOPROFEN] | 0.56 |  |
| COCCc1ccc(OCC(O)CNC(C)C)cc1 (centres undefined) [METOPROLOL] | -0.81 |  |
| Clc1ccc(COC(Cn2ccnc2)c2ccc(Cl)cc2Cl)c(Cl)c1 (centres undefined) [MICONAZOLE] | 5.55 |  |
| Nc1cc(N2CCCCC2)nc(N)[n+]1[O-] [MINOXIDIL] | -3.99 |  |
| O=C(O)c1cccnc1Nc1cccc(C(F)(F)F)c1 [NIFLUMIC ACID] | 2.01 |  |
| COc1ccc2[nH]c([S+]([O-])Cc3ncc(C)c(OC)c3C)nc2c1 (centres undefined) [OMEPRAZOLE] | 2.16 |  |
| CN1C(C(=O)Nc2ccccn2)=C(O)c2ccccc2S1(=O)=O [PIROXICAM] | -0.35 |  |
| CC(=O)[C@H]1CC[C@H]2[C@@H]3CCC4=CC(=O)CC[C@]4(C)[C@H]3CC[C@]12C [PROGESTERONE] |  | 1.08 |
| CC1(C)C(=O)N(c2ccc(C#N)c(C(F)(F)F)c2)C(=O)N1CCCCO [RU-58841] | 2.41 |  |
| Nc1ccc(S(=O)(=O)Nc2ccccn2)cc1 [SULFAPYRIDINE] | 0.03 |  |
| O=C(O)c1cc(/N=N/c2ccc(S(=O)(=O)Nc3ccccn3)cc2)ccc1O [SULFASALAZINE] | 0.05 | -1.31 |
| CCN1CCCC1CNC(=O)c1cc(S(N)(=O)=O)ccc1OC (centres undefined) [SULPIRIDE] |  | -1.48 |
| CC(C)(C)NCC(O)c1cc(O)cc(O)c1 (centres undefined) [TERBUTALINE] | -2.14 |  |
| CC(C)(C)c1ccc(C(O)CCCN2CCC(C(O)(c3ccccc3)c3ccccc3)CC2)cc1 (centres undefined) [TERFENADINE] | 3.72 |  |
| C[C@]12CC[C@H]3[C@@H](CCC4=CC(=O)CC[C@@]43C)[C@@H]1CC[C@@H]2O [TESTOSTERONE] | 3.48 |  |
| CC(=O)CC(c1ccccc1)c1c(O)c2ccccc2oc1=O (centres undefined) [WARFARIN] | 1.43 |  |
